From ChEMBL document CHEMBL5137095, “N-Benzyl Benzamide Derivatives as Selective Sub-Nanomolar Butyrylcholinesterase Inhibitors for Possible Treatment in Advanced Alzheimer's Disease” (J Med Chem, 2022)

Experiments:
[1] = molecular target: Cholinesterase (Equus caballus, UniProt P81908); test: Inhibition of horse serum BChE using acetylthiocholine iodide or butyrylthiocholine iodide as substrate preincubated for 5 mins followed by substrate addition by Ellman's method
[2] = molecular target: Cholinesterase (Homo sapiens, UniProt P06276); test: Inhibition of human BChE using acetylthiocholine iodide or butyrylthiocholine iodide as substrate preincubated for 5 mins followed by substrate addition by Ellman's method
Chain of Cholinesterase (Homo sapiens, UniProt P06276) (P06276 whole entry): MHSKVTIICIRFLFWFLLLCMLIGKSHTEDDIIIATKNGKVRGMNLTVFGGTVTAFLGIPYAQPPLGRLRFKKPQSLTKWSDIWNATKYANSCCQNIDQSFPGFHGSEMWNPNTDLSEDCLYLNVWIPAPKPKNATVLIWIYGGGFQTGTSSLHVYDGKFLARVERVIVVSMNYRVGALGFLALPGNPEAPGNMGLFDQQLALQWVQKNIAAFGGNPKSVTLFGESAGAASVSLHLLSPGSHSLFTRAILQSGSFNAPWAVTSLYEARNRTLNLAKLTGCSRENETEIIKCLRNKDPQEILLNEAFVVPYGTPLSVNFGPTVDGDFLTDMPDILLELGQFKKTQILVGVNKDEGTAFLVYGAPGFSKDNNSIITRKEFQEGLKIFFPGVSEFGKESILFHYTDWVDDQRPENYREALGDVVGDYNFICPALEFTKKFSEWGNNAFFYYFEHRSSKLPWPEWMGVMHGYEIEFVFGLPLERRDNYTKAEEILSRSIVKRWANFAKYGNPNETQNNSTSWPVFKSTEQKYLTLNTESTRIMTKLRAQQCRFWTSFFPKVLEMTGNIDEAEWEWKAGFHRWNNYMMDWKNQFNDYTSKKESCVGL

[3] = n-octanol-water partition coefficient, log P of the compound by HPLC analysis; type: physicochemical
[4] = Permeability of compound incubated for 18 hrs by PAMPA-BBB assay; type: ADME; conditions: read-out: permeability

Chain of Cholinesterase (Equus caballus, UniProt P81908) (P81908 whole entry): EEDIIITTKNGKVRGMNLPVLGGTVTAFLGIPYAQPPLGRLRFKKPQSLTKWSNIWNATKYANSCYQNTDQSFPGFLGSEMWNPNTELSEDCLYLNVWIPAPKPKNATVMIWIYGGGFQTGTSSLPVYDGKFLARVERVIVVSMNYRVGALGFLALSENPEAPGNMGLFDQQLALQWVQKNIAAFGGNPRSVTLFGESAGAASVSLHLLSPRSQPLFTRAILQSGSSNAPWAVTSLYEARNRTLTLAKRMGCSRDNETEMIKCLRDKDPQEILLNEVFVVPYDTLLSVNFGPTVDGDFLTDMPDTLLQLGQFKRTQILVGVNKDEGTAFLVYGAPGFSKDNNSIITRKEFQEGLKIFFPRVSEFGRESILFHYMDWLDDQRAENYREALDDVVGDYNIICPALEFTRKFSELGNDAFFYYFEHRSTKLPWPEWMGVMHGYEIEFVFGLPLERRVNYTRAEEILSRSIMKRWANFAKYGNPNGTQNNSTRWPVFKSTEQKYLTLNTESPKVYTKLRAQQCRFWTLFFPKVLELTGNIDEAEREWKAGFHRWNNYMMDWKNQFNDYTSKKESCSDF

Structure (SMILES)	IC50 [1] [nM]	IC50 [2] [nM]	logP [3]	Papp at 18 h [4] [×10⁻⁶ cm/s]
CCN(CC)Cc1ccccc1CNC(=O)c1ccc(Br)c(NC(=O)c2ccc(F)cc2)c1	2.42	2.58	–	–
CCN(CC)Cc1ccccc1CNC(=O)c1cccc(NC(=O)C2CCCCC2)c1	7.9	3.71	–	–
CCN(CC)Cc1ccccc1CNC(=O)c1cccc(NC(=O)c2ccc(F)cc2)c1Br	14.4	1840	–	–
CCN(CC)Cc1ccccc1CNC(=O)c1ccc(NC(=O)c2ccc(F)cc2)cc1	4.99	5.29	–	–
CCN(CC)Cc1ccccc1CNC(=O)c1cc(NC(=O)c2ccc(F)cc2)cc(C(F)(F)F)c1	1.35	8.67	–	–
CCN(CC)Cc1ccccc1CNC(=O)c1cccc(OC(=O)c2cccs2)c1	158	132	–	–
Cc1ccccc1NC(=O)c1cccc(NC(=O)c2cccs2)c1	12900	11100	–	–
CN(C)Cc1ccccc1NC(=O)c1cccc(NC(=O)c2cccs2)c1	–	1240	–	–
CCN(CC)Cc1ccccc1CNC(=O)c1cccc(NC(=O)c2ccc(Br)cc2)c1	0.087	0.13	2.73	–
CCN(CC)Cc1ccccc1CNC(=O)c1cc(NC(=O)c2ccc(F)cc2)ccc1Br	3.53	16.1	–	–
CCN(CC)Cc1ccccc1CNC(=O)c1cc(NC(=O)c2ccc(F)cc2)cc(OC)c1	0.82	136	–	–
CCN(CC)Cc1ccccc1CNC(=O)c1cccc(NC(=O)c2ccc(F)cc2)c1C	0.14	0.26	1.02	11.4
CCN(CC)Cc1ccccc1NC(=O)c1cccc(NC(=O)c2cccs2)c1	–	540	–	–
CCN(CC)Cc1cccc(CNC(=O)c2cccc(NC(=O)c3cccs3)c2)c1	55000	48900	–	–
CCCN(CCC)Cc1ccccc1NC(=O)c1cccc(NC(=O)c2cccs2)c1	120	870	–	–
CCN(CC)Cc1ccccc1CNC(=O)c1cc(C#N)cc(NC(=O)c2ccc(F)cc2)c1	1.51	3.16	–	–
CCN(CC)Cc1ccccc1CNC(=O)c1cccc(NS(=O)(=O)c2cccs2)c1	350	2610	–	–
CCN(CC)Cc1ccccc1CNC(=O)c1cccc(C(=O)Nc2cccs2)c1	1.19	12.9	–	–
CCN(CC)Cc1ccccc1CNC(=O)c1cccc(NC(=O)c2cccc(F)c2)c1	–	3.11	–	–
CCN(CC)Cc1ccccc1CNC(=O)c1cc(F)cc(NC(=O)c2ccc(F)cc2)c1	0.55	0.61	1.36	–
CCN(CC)Cc1ccccc1CNC(=O)c1cccc(NC(=O)c2ccccc2)c1	0.96	–	–	–
CCN(CC)Cc1ccc(CNC(=O)c2cccc(NC(=O)c3cccs3)c2)cc1	5950	3440	–	–
CCN(CC)Cc1ccccc1CNC(=O)c1cccc(NC(=O)c2ccccc2F)c1	6.54	5.04	–	–
CCN(CC)Cc1ccccc1CNC(=O)c1cccc(NC(=O)c2ccc(Cl)cc2)c1	1.02	0.76	2.67	6.02
CCN(CC)Cc1ccccc1CNC(=O)c1ccc(C)c(NC(=O)c2ccc(F)cc2)c1	0.38	135	–	–
O=C(NCc1ccccc1)c1cccc(NC(=O)c2cccs2)c1	97300	31300	–	–
CCN(CC)Cc1ccccc1CNC(=O)c1cccc(NC(=O)c2ccc(I)cc2)c1	0.34	0.11	–	10.1
CCN(CC)Cc1ccccc1CNC(=O)c1cccc(NC(=O)c2c(F)c(F)c(F)c(F)c2F)c1	0.48	1.28	–	–
CCN(CC)Cc1ccccc1CNC(=O)c1ccccc1NC(=O)c1ccc(F)cc1	187	115	–	–
